From patent US20110144127A1, “AGENTS FOR TREATMENT OF GLAUCOMATOUS RETINOPATHY AND OPTIC NEUROPATHY” (ALCON INC., priority 2003, published 2011)

Assays:
[1] = test system: cultured adult rat retinal ganglion cells; assay: Glutamate-induced toxicity in cultured adult rat retinal ganglion cells (survival by counting Thy-1-positive healthy cells); format: cell-based
Procedure: Cells were treated with the indicated compounds for 3 days. Survival was assayed by counting Thy-1-positive healthy cells. The asterisk * represents a significant difference from the control values by one-way ANOVA analysis of variance between groups, then Dunnett's test.
Adult Sprague-Dawley rats were euthanized by CO2 asphyxiation. Their eyes were enucleated and placed in NEUROBASAL™ medium (Gibco, Gaithersburg, Md.). The retina from each eye was detached and isolated. Retinal cells were dissociated by combining up to 20 retinae with 5 mL of papain solution containing 10 mg papain, 2 mg DL-cysteine, and 2 mg bovine serum albumin in 5 ml of NEUROBASAL™ medium, for 25 min at 37° C., then washed 3 times with 5 mL RGC medium (NEUROBASAL™) medium supplemented as cited in Example 2 and with 1% fetal calf serum. Retinal pieces were triturated by passing through a fire-polished disposable pipet several times until cells were dispersed. The cell suspension was placed onto a poly-D-lysine- and laminin-coated 8-well chambered culture slide. […] The cells were then cultured at 95% air/5% CO2 at 37° C. for three days.
At the end of the incubation period, the cells were fixed and labeled for Thy-1, a RGC marker, by immunocytochemistry. Cell survival was quantified by manually counting Thy-1-positive healthy cells in each well.

[2] = test system: quinone reductase, glutathione-S-transferase, and glutathione reductase; settings: various cell lines including human adult retinal pigment epithelial cells; cited from earlier work

Row | SMILES | reduction of the surviving cells ([1]; glutamate 100 μM for 3 days, adult rat RGC) | protection from glutamate-induced toxicity (survival of Thy-1-positive healthy cells) ([1]; sulforaphane 0.5 μM with glutamate 100 μM, 3 days, adult Sprague-Dawley rat RGC) | induction of detoxification enzymes [2]
1 | N[C@@H](CCC(=O)O)C(=O)O [glutamate] | 40-60% | – | –
2 | C[S+]([O-])CCCCN=C=S (stereo not drawn) [sulforaphane] | – | prevented such toxicity | known to induce quinone reductase, glutathione-S-transferase, and glutathione reductase
